Results: patent publication US10758584B2, “Topical formulation for promoting wound healing” (Oneness Biotech Co. LTD, priority 2016, dated 2020)

Test: clinical
Details: human, in vivo
Method: […]. The PA and CA extracts in the topical formulation were prepared according to the methods described herein. The topical formulation is cream-based and further comprises cetostearyl alcohol (about 1.0-10% by weight, for example, about 3.5-6.5% by weight), white petrolatum and liquid petrolatum 350 cps (about 5%-30% by weight in total, for example, about 5-15% by weight in total), methyl paraben and propyl paraben (about 0.005% to 0.2% by weight in total, for example, 0.005-0.2% by weight in total), emulsifiers such as Span® 60 and Tween® 60 (about 0.5-10% by weight in total, for example, about 0.5-5% by weight in total), and one or more solvent such as propylene glycol (about 2-20% by weight, for example, about 4-10% by weight). The extracts were formulated in a cream-based topical formulation that additionally contains liquid petrolatum, propylene glycol, cetyl stearyl alcohol, white petrolatum, Span® 60, Tween® 60, propyl paraben, methyl paraben, and water.
A total of 12 patients completed the study. Each subject received one dose of the cream formulation on Day 1 followed by the blood sampling collection, then twice per day from Day 2 to Day 13, and a further blood sampling collection was scheduled on Day 14 after the final dose. […].

- concentration at 1 day: ≤ 0.0124 ng/mL
- concentration at 14 day: ≤ 0.017 ng/mL
- number of patients with detectable plasma concentrations (1 day): 2
- number of patients with detectable plasma concentrations (14 day): 4
SMILES: COc1ccc(-c2cc(=O)c3c(O)c(OC)c(OC)cc3o2)cc1 [salvigenin]
